# Values of other authors in US7955624B2, “Compositions and methods for increasing adipose metabolism, lipolysis or lipolytic metabolism via thermogenesis” (HHC Formulations Ltd., priority 2006, dated 2011).
# Assays:
# [1] = mice
# [2] = active treatment versus placebo
# [3] = not given; remark: listed apart in the source
# [4] = mice; remark: listed apart in the source
compound,measurement,setting,value
evodiamine,secretion of adrenergic signaling molecules,bovine adrenal medulla,increase the secretion
same,body fat,[1],decrease body fat
same,energy expenditure,[1],increase energy expenditure
same,lipid mobilization,[1],increase
"O=P(O)(O)O[C@H]1[C@H](OP(=O)(O)O)[C@@H](OP(=O)(O)O)[C@H](OP(=O)(O)O)[C@@H](OP(=O)(O)O)[C@H]1OP(=O)(O)O [inositol hexaphosphate, Inositol hexaphosphate]","reducing triglycerides, cholesterol and lipogenic enzymes",0.02% to 10% phytic acid in a high sucrose diet,dose-dependent response
same,food intake and growth,"highest dose, 10% phytic acid",reduction
"O=C(O)c1cccnc1 [Niacin, nicotinic acid]",high-density lipoprotein cholesterol (HDL-C),[2],increase
same,low-density lipoprotein cholesterol (LDL-C),[2],decrease
same,total cholesterol,[2],decrease
same,triglyceride levels,[2],decrease
Cn1c(=O)c2c(ncn2C)n(C)c1=O [caffeine],basal metabolic rate,[3]; humans,increase the basal metabolic rate
same,weight loss,"[3]; obese women, caffeine supplementation",Significant weight loss
"CN(C)CCO [deanol, dimethylaminoethanol]",plasma and tissue levels of choline,[4],increase
